According to patent US20180147187A1, “COMPOUNDS, COMPOSITIONS, AND METHODS FOR INCREASING CFTR ACTIVITY” (Proteostasis Therapeutics, Inc., priority 2006, published 2018):

What was measured:
ΔF508-CFTR [1] = biological target: T1, ΔF508-CFTR (Homo sapiens, UniProt P13569, DEL508-508); experiment: hBE Equivalent Current (Ieq) Assay; format: cell-based; conditions: compound at 10 uM and VX-809 at 1 uM; ΔF508 homozygous hBE, 24 hours; AUC of equivalent chloride current
T1 construct: primary lung epithelial cells (hBEs) homozygous for the Cystic Fibrosis-causing ΔF508 mutation; endogenous in cells; host or cells: primary human bronchial epithelial cells (hBE), ΔF508/ΔF508, differentiated at air-liquid interface
Procedure: Primary lung epithelial cells homozygous for the Cystic Fibrosis-causing ΔF508 mutation were differentiated for a minimum of 4 weeks in an air-liquid interface on Costar 24 well HTS filter plates prior to the equivalent current (Ieq) measurements. Cells were apically mucus-washed for 30 minutes 24 h prior to treatment with compounds. The basolateral media was removed and replaced with media containing the compound of interest diluted to its final concentration from DMSO stocks. Treated cells were incubated at 37° C. and 5% CO2 for 24 hours. At the end of the treatment period, the media was changed to the Ieq experimental solution for 30 minutes before the experiment and plates are maintained in a CO2-free incubator during this period. The plates containing the cells were then placed in pre-warmed heating blocks at 36° C.±0.5 for 15 minutes before measurements are taken. The transepithelial voltage (VT) and conductance (GT) were measured using a custom 24 channel current clamp (TECC-24) with 24 well electrode manifold. The Ieq assay measurements were made following additions with standardized time periods: • 1. The baseline VT and GT values were measured for approximately 20 minutes. • 2. Benzamil was added to block ENaC for 15 minutes. • 3. Forskolin plus VX-770 (ivacaftor) were added to maximally activate ΔF508-CFTR for 27 minutes. • 4. Bumetanide was added to inhibit the NaK2C1 cotransporter and shut-off secretion of chloride.
The activity data captured was the area under the curve (AUC) for the traces of the equivalent chloride current. The AUC was collected from the time of the forskolin/VX-770 addition until the inhibition by bumetanide addition. Correction in response to compound treatment was scored as the increase in the AUC for compound-treated samples over that of vehicle-treated samples.
(§1) (** indicates activity ≥200% of VX-809 (1 uM) with compound at 10 uM and VX-809 at 1 uM; * indicates activity 100-200% of VX-809 (1 uM) with compound at 10 uM and VX-809 at 1 uM. ^## indicates activity ≥200% of VX-809 (3 uM) with compound at 10 uM and VX-809 at 3 uM; ^# indicates activity 100-200% of VX-809 (3 uM) with compound at 10 uM and VX-809 at 3 uM.

ΔF508-CFTR [2] = biological target: T1, ΔF508-CFTR; experiment: Ussing measurements, hBEs homozygous for ΔF508; format: cell-based; conditions: compound at 10 uM and VX-809 at 3 uM; ΔF508 homozygous hBE, 24 hours; CFTRinh-172 inhibitable current
Procedure: As discussed above, Ussing measurements can be used to measure CFTR activity. In this example, primary lung epithelial cells (hBEs) homozygous for the Cystic Fibrosis-causing ΔF508 mutation were differentiated for a minimum of 4 weeks in an air-liquid interface on SnapWell filter plates prior to the Ussing measurements. Cells were apically mucus-washed for 30 minutes prior to treatment with compounds. The basolateral media was removed and replaced with media containing the compound of interest diluted to its final concentration from DMSO stocks. Treated cells were incubated at 37° C. and 5% CO2 for 24 hours. At the end of the treatment period, the cells on filters were transferred to the Ussing chamber and equilibrated for 30 minutes. The short-circuit current was measured in voltage clamp-mode (Vhold=0 mV), and the entire assay was conducted at a temperature of 36° C.-36.5° C. Once the voltages stabilized, the chambers were clamped, and data was recorded by pulse readings every 5 seconds. Following baseline current stabilization, the following additions were applied and the changes in current and resistance of the cells was monitored: • 1. Benzamil to the apical chamber to inhibit ENaC sodium channel. • 2. Forskolin to both chambers to activate ΔF508-CFTR by phosphorylation. • 3. Genistein or VX-770 (ivacaftor) to both chambers to potentiate ΔF508-CFTR channel opening. • 4. CFTRinh-172 to the apical chamber to inhibit ΔF508-CFTR Cl— conductance.
(§2) The inhibitable current (that current that is blocked by CFTRinh-172) is measured as the specific activity of the ΔF508-CFTR channel, and increases in response to compound in this activity over that observed in vehicle-treated samples are identified as the correction of ΔF508-CFTR function imparted by the compound tested.
as §1

CFTR, S549N/F508del HBEs = experiment: Ussing measurements, class III mutation hBEs (S549N/F508del); format: cell-based, human; conditions: Ivacaftor 1 uM, Compound A 10 uM, 24 hours
Procedure: (§3) As discussed above, Ussing measurements was used to measure CFTR activity. In this method, primary lung epithelial cells (hBEs) with a Cystic Fibrosis-causing class III mutation were differentiated for a minimum of 4 weeks in an air-liquid interface on SnapWell™ filter plates prior to the Ussing measurements. Cells were apically mucus-washed for 30 minutes prior to treatment with compounds. The basolateral media was removed and replaced with media containing the compound of interest diluted to its final concentration from DMSO stocks. Treated cells were incubated at 37° C. and 5% CO2 for 24 hours. At the end of the treatment period, the cells on filters were transferred to the Ussing chamber and equilibrated for 30 minutes. The short-circuit current was measured in voltage clamp-mode (Vhold=0 mV), and the entire assay was conducted at a temperature of 36° C.-36.5° C. Once the voltages stabilized, the chambers were clamped, and data was recorded by pulse readings every 5 seconds. Following baseline current stabilization, the following additions were applied and the changes in current and resistance of the cells was monitored: • 1. Benzamil to the apical chamber to inhibit ENaC sodium channel. • 2. Forskolin to both chambers to activate ΔF508-CFTR by phosphorylation. • 3. Genistein or VX-770 (ivacaftor) to the apical chamber to potentiate ΔF508-CFTR channel opening. • 4. CFTRinh-172 to the apical chamber to inhibit ΔF508-CFTR Cl— conductance.
as §2, with “The forskolin-sensitive current and” for “The”, “(that potentiated” for “(that”, “CFTRinh-172) were” for “CFTRinh-172) is”, “and increase” for “and increases”, “samples were” for “samples are”
(§4) The results are shown below in Tables 5 and 6. VX-661 is 3 uM, Ivacaftor is 1 uM and Compound A is 10 uM.

CFTR, G551D/F508del HBEs = experiment: Ussing measurements, class III mutation hBEs (G551D/F508del); format: cell-based, human; conditions: VX-661 3 uM, Ivacaftor 1 uM, Compound A 10 uM, 24 hours
Procedure: as §3
as §2, with “The forskolin-sensitive current and” for “The”, “(that potentiated” for “(that”, “CFTRinh-172) were” for “CFTRinh-172) is”, “and increase” for “and increases”, “samples were” for “samples are”
as §4

T1 sequence (P13569 with tags, fused parts or gaps DEL508-508): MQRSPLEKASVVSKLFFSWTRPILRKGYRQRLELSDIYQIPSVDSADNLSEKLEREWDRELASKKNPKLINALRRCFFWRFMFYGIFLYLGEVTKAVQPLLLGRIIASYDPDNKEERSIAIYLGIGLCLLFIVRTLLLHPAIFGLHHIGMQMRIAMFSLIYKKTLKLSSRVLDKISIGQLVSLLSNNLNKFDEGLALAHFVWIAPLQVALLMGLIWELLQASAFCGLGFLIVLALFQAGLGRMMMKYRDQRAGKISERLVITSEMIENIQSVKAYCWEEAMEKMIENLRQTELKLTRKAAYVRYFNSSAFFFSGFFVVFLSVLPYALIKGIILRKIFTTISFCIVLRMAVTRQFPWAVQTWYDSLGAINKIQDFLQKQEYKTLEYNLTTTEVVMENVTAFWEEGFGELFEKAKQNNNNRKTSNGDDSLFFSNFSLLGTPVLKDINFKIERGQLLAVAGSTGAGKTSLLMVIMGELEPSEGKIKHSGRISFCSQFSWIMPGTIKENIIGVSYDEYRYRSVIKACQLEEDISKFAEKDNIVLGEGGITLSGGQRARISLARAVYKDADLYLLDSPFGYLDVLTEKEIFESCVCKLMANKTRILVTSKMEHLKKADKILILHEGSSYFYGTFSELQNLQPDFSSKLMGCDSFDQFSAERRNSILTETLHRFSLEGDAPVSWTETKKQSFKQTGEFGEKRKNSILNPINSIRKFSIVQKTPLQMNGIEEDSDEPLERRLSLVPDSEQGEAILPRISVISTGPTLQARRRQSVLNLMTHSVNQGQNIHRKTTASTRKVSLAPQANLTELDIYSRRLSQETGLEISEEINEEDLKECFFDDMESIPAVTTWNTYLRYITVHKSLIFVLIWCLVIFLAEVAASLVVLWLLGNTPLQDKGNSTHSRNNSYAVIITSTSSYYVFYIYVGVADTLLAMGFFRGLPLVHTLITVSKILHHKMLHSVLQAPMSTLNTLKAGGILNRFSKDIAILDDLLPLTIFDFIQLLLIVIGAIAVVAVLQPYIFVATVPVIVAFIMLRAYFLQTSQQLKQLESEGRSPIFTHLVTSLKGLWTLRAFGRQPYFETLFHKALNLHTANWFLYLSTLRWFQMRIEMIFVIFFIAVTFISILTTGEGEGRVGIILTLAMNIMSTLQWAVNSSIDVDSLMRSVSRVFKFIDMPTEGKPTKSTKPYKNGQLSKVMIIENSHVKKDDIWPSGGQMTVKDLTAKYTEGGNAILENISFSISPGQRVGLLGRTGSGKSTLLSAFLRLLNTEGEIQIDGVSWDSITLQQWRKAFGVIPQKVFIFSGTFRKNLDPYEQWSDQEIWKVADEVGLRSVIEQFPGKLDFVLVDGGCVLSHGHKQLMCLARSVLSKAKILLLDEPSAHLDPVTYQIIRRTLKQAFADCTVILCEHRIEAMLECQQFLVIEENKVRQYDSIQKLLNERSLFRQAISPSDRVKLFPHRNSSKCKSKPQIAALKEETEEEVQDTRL

| SMILES | Ieq (% VX-809) (ΔF508-CFTR [1]) | Ussing (% VX-809) (ΔF508-CFTR [2]) | other results |
| --- | --- | --- | --- |
| O=C(NC[C@H]1C[C@@H](c2nnc(CO)s2)C1)c1cc(-c2ccccc2)on1 | ** (** indicates activity ≥200% of VX-809 (1 uM) with compound at 10 uM and VX-809 at 1 uM) |  |  |
| O=C(NC1CC(c2nnc(CO)o2)C1)c1cc(-c2ccccc2)on1 (centres unmarked) |  | ## (^## indicates activity ≥200% of VX-809 (3 uM) with compound at 10 uM and VX-809 at 3 uM) |  |
| O=C(N[C@H]1C[C@@H](n2cc(CO)cn2)C1)c1cc(-c2ccccc2)on1 | * (* indicates activity 100-200% of VX-809 (1 uM) with compound at 10 uM and VX-809 at 1 uM) |  |  |
| O=C(N[C@H]1C[C@@H](Cc2nnc(CO)s2)C1)c1cc(-c2ccccc2)on1 | ** (** indicates activity ≥200% of VX-809 (1 uM) with compound at 10 uM and VX-809 at 1 uM) | ## (^## indicates activity ≥200% of VX-809 (3 uM) with compound at 10 uM and VX-809 at 3 uM) |  |
| C[C@@H](O)c1cnnn1[C@H]1C[C@@H](NC(=O)c2cc(-c3ccccc3)on2)C1 | ** (** indicates activity ≥200% of VX-809 (1 uM) with compound at 10 uM and VX-809 at 1 uM) |  |  |
| O=C(N[C@H]1C[C@@H](n2ccc(CO)n2)C1)c1cc(-c2ccccc2)on1 | ** (** indicates activity ≥200% of VX-809 (1 uM) with compound at 10 uM and VX-809 at 1 uM) |  |  |
| C[C@H](O)c1nnc(C2CC(NC(=O)c3cc(-c4ccccc4)on3)C2)o1 (some centres unmarked) |  | ## (^## indicates activity ≥200% of VX-809 (3 uM) with compound at 10 uM and VX-809 at 3 uM) |  |
| O=C(N[C@H]1C[C@H](Cc2nnc(CO)s2)C1)c1cc(-c2ccccc2)on1 | ** (** indicates activity ≥200% of VX-809 (1 uM) with compound at 10 uM and VX-809 at 1 uM) |  |  |
| O=C(N[C@H]1C[C@H](n2nncc2CO)C1)c1cc(-c2ccccc2)on1 | * (* indicates activity 100-200% of VX-809 (1 uM) with compound at 10 uM and VX-809 at 1 uM) | ## (^## indicates activity ≥200% of VX-809 (3 uM) with compound at 10 uM and VX-809 at 3 uM) |  |
| O=C(N[C@H]1C[C@@H](n2cc(CO)nn2)C1)c1cc(-c2ccccc2)on1 | ** (** indicates activity ≥200% of VX-809 (1 uM) with compound at 10 uM and VX-809 at 1 uM) | ## (^## indicates activity ≥200% of VX-809 (3 uM) with compound at 10 uM and VX-809 at 3 uM) |  |
| Cc1ccc(NC(=O)C2(c3ccc4c(c3)OC(F)(F)O4)CC2)nc1-c1cccc(C(=O)O)c1 [VX-809, 3-(6-(1-(2,2-difluorobenzo[d][1,3]dioxol-5-yl)cyclopropanecarboxamido)-3-methylpyridin-2-yl)benzoic acid] |  |  | Activity in S549N/F508del HBEs (CFTR, S549N/F508del HBEs): 6.4 uAMP/cm^2 |
| C[C@H](O)c1cnnn1[C@H]1C[C@@H](NC(=O)c2cc(-c3ccccc3)on2)C1 | ** (** indicates activity ≥200% of VX-809 (1 uM) with compound at 10 uM and VX-809 at 1 uM) | ## (^## indicates activity ≥200% of VX-809 (3 uM) with compound at 10 uM and VX-809 at 3 uM) |  |
| C[C@@H](O)c1nnc(C2CC(NC(=O)c3cc(-c4ccccc4)on3)C2)o1 (some centres unmarked) |  | ## (^## indicates activity ≥200% of VX-809 (3 uM) with compound at 10 uM and VX-809 at 3 uM) |  |
| O=C(NC[C@H]1C[C@H](c2nnc(CO)s2)C1)c1cc(-c2ccccc2)on1 | ** (** indicates activity ≥200% of VX-809 (1 uM) with compound at 10 uM and VX-809 at 1 uM) |  |  |
| O=C(N[C@H]1C[C@@H](c2nnc(CO)s2)C1)c1cc(-c2ccccc2)on1 | ** (** indicates activity ≥200% of VX-809 (1 uM) with compound at 10 uM and VX-809 at 1 uM) |  |  |
| O=C(N[C@H]1C[C@@H](n2nncc2CO)C1)c1cc(-c2ccccc2)on1 | ** (** indicates activity ≥200% of VX-809 (1 uM) with compound at 10 uM and VX-809 at 1 uM) | ## (^## indicates activity ≥200% of VX-809 (3 uM) with compound at 10 uM and VX-809 at 3 uM) |  |
| C[C@H](O)c1cn([C@H]2C[C@@H](NC(=O)c3cc(-c4ccccc4)on3)C2)nn1 | ** (** indicates activity ≥200% of VX-809 (1 uM) with compound at 10 uM and VX-809 at 1 uM) |  |  |
| C[C@@H](O)c1cn([C@H]2C[C@@H](NC(=O)c3cc(-c4ccccc4)on3)C2)nn1 | ** (** indicates activity ≥200% of VX-809 (1 uM) with compound at 10 uM and VX-809 at 1 uM) |  |  |
| O=C(N[C@H]1C[C@H](n2cc(CO)nn2)C1)c1cc(-c2ccccc2)on1 | * (* indicates activity 100-200% of VX-809 (1 uM) with compound at 10 uM and VX-809 at 1 uM) | ## (^## indicates activity ≥200% of VX-809 (3 uM) with compound at 10 uM and VX-809 at 3 uM) |  |
| CC(C)(CO)c1cc2cc(NC(=O)C3(c4ccc5c(c4)OC(F)(F)O5)CC3)c(F)cc2n1C[C@@H](O)CO [VX-661, 1-(2,2-difluoro-1,3-benzodioxol-5-yl)-N-[1-[(2R)-2,3-dihydroxypropyl]-6-fluoro-2-(2-hydroxy-1,1-dimethylethyl)-1H-indol-5-yl]-cyclopropanecarboxamide] |  |  | Activity in G551D/F508del HBEs (CFTR, G551D/F508del HBEs): 3.8 uAMP/cm^2 |
